Measurements published in patent publication US9139551B2, “Preparation of a new class of water-soluble ammonium 2,3-dihydroxy-5-((2R,3R)-3,5,7-trihydroxy-4-oxochroman-2-yl) phenolates and their biological activity of alcohol elimination” (priority 2014, dated 2015).
In brackets after ≈: the same amount, converted by molar mass. Several values for one entry are separate records, joined by “and”; a condition that tells them apart may be missing. Equal values may be shown once. Marks after values point to notes of the source that are not given here.

Tests used:
Balb/C mice [1] = test: Climbing net test; format: in vivo; conditions: 2 mg/kg gavage 30 min before alcohol; vertical metal net
Method: Climbing Net Test • Groups design and treatment before experiment are as the same as that in deintoxication test. […] 30 minutes later all mice administrated alcohol (liquid Erguotou, ethonol concentration was diluted to 30%) 0.2 mL/kg BW and placed on a vertical metal net and measured the time when mice climbed on net.

mice [2] = test: Acute toxicity, intragastric administration (maximum tolerated dose); conditions: for average body weight of mice / dietary change-by-day of mice: PDHM MTD 3750 mg/kg i.g.
Balb/C mice [3] = test: Plasma EtOH concentration assay; format: in vivo; conditions: intragastric 2 mg/kg
Method: Plasma EtOH Concentration Assay. • Blood samples from the tail vein of mice at different time points (0, 15, 30, 45, 60, 90, 120, 240, 480 and 720 minutes) after EtOH (30% ethanol, 0.2 ml/kg bw) or TDHM (2 mg/kg bw), PDHM (2 mg/kg bw) or DHM (2 mg/kg bw) gavage were collected for plasma EtOH concentrations (plasma [EtOH]) assays. (“BW” or “bw”: body weight) • Briefly, the Balb/C mice were put into a restraint tube and the tail was warmed at 37° C. The tail vein at the tip of the tail was punched with a sharp blade. Approximately 0.2 ml venous blood was dropped to a capillary blood collection tube containing lithium heparin (Ram Scientific). Blood samples were centrifuged at 2500 rpm for 20 min. The supernatant was collected and stored at −80° C. until assay. The EtOH content of each blood sample was measured in duplicate along with EtOH standards using the alcohol oxidase reaction procedures (EnzyChrom™ Ethanol Acid Assay Kit, ECET-100) (Liang et al., 2007). The sample preparations were the same as described above.

Balb/C mice [4] = test: Deintoxication test (agent 30 min before alcohol)
physchem = conditions: water
Balb/C mice [5] = test: Anti-alcoholism test (agent 30 min after alcohol); format: in vivo
Source text: Anti-Alcoholism Tests • Groups design and treatment before experiment are as the same as that in Deintoxication test. […]

mice [6] = test: Acute toxicity, intraperitoneal administration (mortality, LD50, body weight, dietary); format: in vivo; conditions: for Dead number: 20 mice; for Dead number / mortality: 7 days
Method: Acute Toxicity • Compounds PDHM/TDHM.
140 mice were divided into 7 groups (n=20), each group include 10 males and 10 females, they were treated with different concentrations of dosages and observed for 7 days. Specific experimental groups and experimental results were noted below. Note: Section 1-6 group compound are PDHM groups, and group 7 is a negative control group.
140 mice were divided into 7 groups (n=20), each group include 10 males and 10 females, they were treated with different concentrations of dosage and observed for 7 days. Note: Section 1-6 group compound are PDHM groups, and group 7 is a negative control group.

[7] = 2 mg/kg gavage 30 min before 30% ethanol
[8] = agents intragastric 30 minutes before drinking
[9] = 2 mg/kg gavage 30 min after 30% ethanol
[10] = 2 mg/kg gavage 30 min after 30% ethanol, 20 mice

With `O=C1c2c(O)cc(O)cc2O[C@H](c2cc(O)c(O)c(O)c2)[C@H]1O` [PDHM, piperidinium 2,3-dihydroxy-5-((2R,3R)-3,5,7-trihydroxy-4-oxochroman-2-yl)phenolate] the climbing (Balb/C mice [1]) was 392.25 ± 76.67^#& min, the “average body weight of mice” value (mice [2]; D1) was 1.97 g and the “dietary change-by-day of mice” value (mice [2]; D1) was 5.98 g. The “average body weight of mice” value (mice [2]; D2) was 3.47 g, the “dietary change-by-day of mice” value (mice [2]; D2) was 6.1 g and the “average body weight of mice” value (mice [2]; D3) was 4.77 g. For the same compound, the “dietary change-by-day of mice” value (mice [2]; D3) was 6.03 g, the “average body weight of mice” value (mice [2]; D4) was 6.37 g and the “dietary change-by-day of mice” value (mice [2]; D4) was 6.14 g. The “average body weight of mice” value (mice [2]; D5) was 7.38 g, the “dietary change-by-day of mice” value (mice [2]; D5) was 6.48 g and the “average body weight of mice” value (mice [2]; D6) was 8.41 g. The “dietary change-by-day of mice” value (mice [2]; D6) was 6.32 g, the “average body weight of mice” value (mice [2]; D7) was 9.67 g and the “dietary change-by-day of mice” value (mice [2]; D7) was 6.57 g. For the same compound, the “pathological examination of stomach, liver, kidney” value (mice [2]; mice at MTD, end of 7-day observation) was “no obvious degeneration, necrosis and other changes”, the “pathology changes in livers, kidneys, hearts and lungs” value (mice [2]; mice of the toxicity experiments) was “No degeneration and necrosis pathology changes” and the “deaths in preliminary experiments” value (mice [2]; mice, different doses, gavage once, observed 7 days) was “no deaths occurred”. For the same compound, the “deaths during the observation period at MTD” value (mice [2]; mice, gavage three times a day, 7 days) was “No deaths”, the “blood alcohol concentration vs control group treated with saline” value (Balb/C mice [3]) was “significantly decreased” and the “reduction of blood alcohol concentration compared with DHM” value (Balb/C mice [3]) was “better beneficial effect than DHM”. The “Sleep time M ± SD” value (Balb/C mice [4]; [7]) was 125.33 ± 33.75 min, the “Tolerance time M ± SD” value (Balb/C mice [4]; [7]) was 25.43 ± 10.80 min and the Dead number (Balb/C mice [4]; 2 mg/kg gavage 30 min before 30% ethanol, 20 mice) was 2 piece. The “holding time comparing with DHM” value (Balb/C mice [4]; [8]) was “shorten”, the “tolerance time of righting reflex disappearing comparing with DHM” value (Balb/C mice [4]; [8]) was “obviously prolonged” and the solubility (physchem) was 5000 µg/mL (≈ 15.6 mM). For the same compound, the “Sleep time M ± SD” value (Balb/C mice [5]; [9]) was 107.71 ± 36.87*^& min, the “Tolerance time M ± SD” value (Balb/C mice [5]; [9]) was 22.14 ± 15 min and the Dead number (Balb/C mice [5]; [10]) was 2 piece. The Rate of drunk (Balb/C mice [5]; [10]) was 10%, the “sleep time in drunk mice comparing with DHM” value (Balb/C mice [5]; 2 mg/kg gavage 30 min after alcohol) was “remarkably shorten” and the Dead number (mice [6]; PDHM 853.27 mg/kg i.p.) was 0. The mortality (mice [6]; PDHM 853.27 mg/kg i.p.) was 0%, the “average dietary of mice” value (mice [6]; PDHM 853.27 mg/kg i.p., D1) was 3.79 g and the “average dietary of mice” value (mice [6]; PDHM 853.27 mg/kg i.p., D2) was 4.58 g. The “average dietary of mice” value (mice [6]; PDHM 853.27 mg/kg i.p., D3) was 3.6 g, the “average dietary of mice” value (mice [6]; PDHM 853.27 mg/kg i.p., D4) was 4.92 g and the “average dietary of mice” value (mice [6]; PDHM 853.27 mg/kg i.p., D5) was 5.76 g. The “average dietary of mice” value (mice [6]; PDHM 853.27 mg/kg i.p., D6) was 5.31 g, the “average dietary of mice” value (mice [6]; PDHM 853.27 mg/kg i.p., D7) was 5.83 g and the Dead number (mice [6]; PDHM 874.6 mg/kg i.p.) was 6. The mortality (mice [6]; PDHM 874.6 mg/kg i.p.) was 30%, the “average dietary of mice” value (mice [6]; PDHM 874.6 mg/kg i.p., D1) was 3.91 g and the “average dietary of mice” value (mice [6]; PDHM 874.6 mg/kg i.p., D2) was 4.73 g. The “average dietary of mice” value (mice [6]; PDHM 874.6 mg/kg i.p., D3) was 5.81 g, the “average dietary of mice” value (mice [6]; PDHM 874.6 mg/kg i.p., D4) was 5.43 g and the “average dietary of mice” value (mice [6]; PDHM 874.6 mg/kg i.p., D5) was 4.97 g. For the same compound, the “average dietary of mice” value (mice [6]; PDHM 874.6 mg/kg i.p., D6) was 5.88 g, the “average dietary of mice” value (mice [6]; PDHM 874.6 mg/kg i.p., D7) was 5.72 g and the Dead number (mice [6]; PDHM 896.47 mg/kg i.p.) was 10. The mortality (mice [6]; PDHM 896.47 mg/kg i.p.) was 50%, the “average dietary of mice” value (mice [6]; PDHM 896.47 mg/kg i.p., D1) was 3.35 g and the “average dietary of mice” value (mice [6]; PDHM 896.47 mg/kg i.p., D2) was 4.92 g. The “average dietary of mice” value (mice [6]; PDHM 896.47 mg/kg i.p., D3) was 5.78 g, the “average dietary of mice” value (mice [6]; PDHM 896.47 mg/kg i.p., D4) was 6.04 g and the “average dietary of mice” value (mice [6]; PDHM 896.47 mg/kg i.p., D5) was 5.72 g. For the same compound, the “average dietary of mice” value (mice [6]; PDHM 896.47 mg/kg i.p., D6) was 5.34 g, the “average dietary of mice” value (mice [6]; PDHM 896.47 mg/kg i.p., D7) was 5.65 g and the Dead number (mice [6]; PDHM 918.88 mg/kg i.p.) was 12. For the same compound, the mortality (mice [6]; PDHM 918.88 mg/kg i.p.) was 60%, the “average dietary of mice” value (mice [6]; PDHM 918.88 mg/kg i.p., D1) was 4.21 g and the “average dietary of mice” value (mice [6]; PDHM 918.88 mg/kg i.p., D2) was 4.79 g. The “average dietary of mice” value (mice [6]; PDHM 918.88 mg/kg i.p., D3) was 5.21 g, the “average dietary of mice” value (mice [6]; PDHM 918.88 mg/kg i.p., D4) was 6.08 g and the “average dietary of mice” value (mice [6]; PDHM 918.88 mg/kg i.p., D5) was 5.83 g. For the same compound, the “average dietary of mice” value (mice [6]; PDHM 918.88 mg/kg i.p., D6) was 6.24 g, the “average dietary of mice” value (mice [6]; PDHM 918.88 mg/kg i.p., D7) was 5.13 g and the Dead number (mice [6]; PDHM 941.85 mg/kg i.p.) was 18. For the same compound, the mortality (mice [6]; PDHM 941.85 mg/kg i.p.) was 90%, the “average dietary of mice” value (mice [6]; PDHM 941.85 mg/kg i.p., D1) was 4.76 g and the “average dietary of mice” value (mice [6]; PDHM 941.85 mg/kg i.p., D2) was 3.92 g. For the same compound, the “average dietary of mice” value (mice [6]; PDHM 941.85 mg/kg i.p., D3) was 4.66 g, the “average dietary of mice” value (mice [6]; PDHM 941.85 mg/kg i.p., D4) was 5.82 g and the “average dietary of mice” value (mice [6]; PDHM 941.85 mg/kg i.p., D5) was 6.15 g. The “average dietary of mice” value (mice [6]; PDHM 941.85 mg/kg i.p., D6) was 5.79 g, the “average dietary of mice” value (mice [6]; PDHM 941.85 mg/kg i.p., D7) was 5.43 g and the Dead number (mice [6]; PDHM 965.4 mg/kg i.p.) was 20. The mortality (mice [6]; PDHM 965.4 mg/kg i.p.) was 100%, the “average dietary of mice” value (mice [6]; PDHM 965.4 mg/kg i.p., D1) was 0 g and the “average dietary of mice” value (mice [6]; PDHM 965.4 mg/kg i.p., D2) was 0 g. The “average dietary of mice” value (mice [6]; PDHM 965.4 mg/kg i.p., D3) was 0 g, the “average dietary of mice” value (mice [6]; PDHM 965.4 mg/kg i.p., D4) was 0 g and the “average dietary of mice” value (mice [6]; PDHM 965.4 mg/kg i.p., D5) was 0 g. The “average dietary of mice” value (mice [6]; PDHM 965.4 mg/kg i.p., D6) was 0 g, the “average dietary of mice” value (mice [6]; PDHM 965.4 mg/kg i.p., D7) was 0 g and the “effect on dietary and body weight” value (mice [6]; mice) was “no significant effect”. For the same compound, the LD50 (mice [6]; mice, i.p., observed 7 days) was 888.79 to 914.58 mg/kg and 748.69 mg/kg.
